The results in this text go back to patent publication US12590951B2, “Culture medium and culture method for primary cells of intestinal cancer” (PRECEDO PHARMACEUTICALS CO., LTD, priority 2021, dated 2026).

Experiment [1] concerns primary cells of intestinal cancer. Kind of experiment: Effect of different concentrations of factors in CA-1 medium on proliferation (ratio of cell number to Blank Control). The experiment is classed as cell-based, human.
Experiment [2] has the same test system. Kind of experiment: Effect of single additives in Basic Medium on proliferation of primary cells of intestinal cancer (cell count). The experiment is classed as cell-based, human. Details: key: +: compared with the Basic Medium, the medium added with the additive(s) has the effect of promoting the proliferation of primary cells of intestinal cancer isolated from intestinal cancer tissue in at least two cases; −: the medium added with the additive(s) has the effect of inhibiting the proliferation of primary cells of intestinal cancer isolated from intestinal cancer tissue in at least one case; ∘: the medium added with the additive(s) has no significant effect on the proliferation of primary cells of intestinal cancer isolated from intestinal cancer tissue in at least two cases. As to the method:
First, Basic Medium was prepared. The formulation of Basic Medium is: DMEM/F12 medium (purchased from Corning)+5 μM Y27632 (purchased from MCE)+5% (v/v) fetal bovine serum (purchased from Excell Bio)+100 μg/mL Primocin (purchased from InvivoGen, 0.2% (v/v), the concentration of commercial product is 50 mg/ml).
Different types of additives (see Table 1) were added to the Basic Medium to prepare the culture mediums for primary cells of intestinal cancer containing different components.
The culture mediums of different components as shown in Table 1 were added into a 48-well plate at a volume of 1 mL/well. Primary cells of intestinal cancer isolated from two cases of intestinal cancer tissues (numbered OE0042 and OE(E)003) according to the above step (2) were inoculated into the 48-well culture plate at a cell density of 3×10^4 cells/well, and were cultured at 37° C., under 5% CO2 concentration. After culturing for 7-10 days, when the cells grew to 85%, the culture medium was discarded, and 100 μL/well of 0.05% trypsin (purchased from Gibco) was used to rinse the cells once. After the trypsin was removed, 200 μL of 0.05% trypsin was added to each well. The plate was then placed in a 37° C., 5% CO2 incubator for 10 minutes, and the cells were observed under a microscope (CNOPTEC, BDS400), showing that the cells had completely digested. 300 μL of DMEM/F12 medium containing 10% serum (Excell Bio, FND500) was added to stop the digestion. 20 μL of the resultant was added into a cell counting plate (Countstar, specification: 50 pieces/box), and the total number of cells was counted with a cell counter (Countstar, IC1000). Specifically, Basic Medium without any additives was used as an experimental control, and the experimental results are shown in Table 1.

[3] abbreviates: according to proliferation ratio vs Blank Control, FIGS. 2A-2J.
[4] abbreviates: additive at the final concentration in Basic Medium, samples OE0042 and OE(E)003, 7-10 days, compared with Basic Medium.

Where two headings read alike, the source gives them in different places.

On to insulin: medium additive from Peprotech, for which, in experiment [1] (setting [3]), the “amount in culture medium, even more preferably” value was determined as 2 µg/mL; the “amount in culture medium, more preferably” value was in the range of 1 to 2 µg/mL; the “amount in culture medium, preferably” value lay in the range of 0.5 to 4 µg/mL. For the same molecule, the “Level of promoting cell proliferation” value in experiment [2] (setting [4]) is given as “+”.
With `C[C@@H](N)[C@H]1CC[C@H](C(=O)Nc2ccncc2)CC1` [Y-27632, reference compound], in experiment [1] (setting [3]), the “amount in culture medium, even more preferably” value came out at 5 µM and the “amount in culture medium, preferably” value lay within 2.5 to 40 µM.
Consider `Cc1cccc(-c2nn(C(=S)Nc3ccccc3)cc2-c2ccnc3ccccc23)n1` [A8301, reference compound], for which the “amount in culture medium, more preferably” value in experiment [1] (setting [3]) is 200 nM. Also, the “Level of promoting cell proliferation” value in experiment [2] (setting [4]) is “−”.
Regarding “hepatocyte growth factor: medium additive, growth factor from Peprotech”, in experiment [2] (setting [4]), the “Level of promoting cell proliferation” value was “∘”.
Still for that read-out and setting: with `C[C@]12CCC(=O)C=C1CC[C@@H]1[C@@H]2[C@@H](O)C[C@@]2(C)[C@H]1CC[C@]2(O)C(=O)CO` [hydrocortisone, reference compound] the entry was “∘”.
On to “insulin-like growth factor-1: medium additive, growth factor from R&D”, for which, in experiment [1] (setting [3]), the “amount in culture medium, more preferably” value was found to be 0.045 µg/mL and the “amount in culture medium, preferably” value fell in the range of 0.005 to 0.405 µg/mL. Moreover, in experiment [2] (setting [4]), the “Level of promoting cell proliferation” value was “+”.
For the molecule cholera toxin, the “amount in culture medium, even more preferably” value in experiment [1] was 0.005 µg/mL. In addition, the “Level of promoting cell proliferation” value in experiment [2] is reported as “+”.
For the molecule `CCCCC[C@H](O)/C=C/[C@H]1[C@H](O)CC(=O)[C@@H]1C/C=C\CCCC(=O)O` [prostaglandin E2, reference compound], the “Level of promoting cell proliferation” value in experiment [2] (setting [4]) was “−”.
On to TGF-β1: medium additive from R&D, for which the “Level of promoting cell proliferation” value in experiment [2] (setting [4]) is “−”.
In the case of “basic fibroblast growth factor: medium additive, growth factor from R&D”, in experiment [2] (setting [4]), the “Level of promoting cell proliferation” value was “−”.
Still for that read-out and setting: with `NC(=O)CC[C@H](N)C(=O)O` [glutamine, reference compound] the entry was “−”; with `Oc1ccc(-c2nc(-c3ccncc3)c(-c3ccc(F)cc3)[nH]2)cc1` [SB202190, reference compound], “∘”.
On the same count and under the same terms, with “epidermal growth factor: medium additive, growth factor from R&D (NSDSECPLSHDGYCLHDGVCMYIEALDKYACNCVVGYIGERCQYRDLKWWELR; Epidermal growth factor; UniProt P01133 971-1023, looked up)” the entry was “∘”.
Take `NC(=O)c1cccnc1` [nicotinamide, reference compound]: in experiment [1] (setting [3]), the “amount in the culture medium, even more preferably” value came out at 4 mM; the “amount in the culture medium, more preferably” value is 4 to 8 mM; the “amount in the culture medium, preferably” value was 2 to 8 mM. The “Level of promoting cell proliferation” value in experiment [2] (setting [4]) was “+”.
